Source: patent publication US11155517B2, “4-substituted phenylamine derivatives and their use to protect crops by fighting undesired phytopathogenic micoorganisms” (PI INDUSTRIES LTD., priority 2016, dated 2021)

How the values were obtained:
Fusarium culmorum [1] = test: Greenhouse Fusarium culmorum test in wheat, preventive; assay type: in vivo; settings: 24 h, read-out: Efficacy (% control), disease severity vs untreated check
Method: Compounds were dissolved in 2% DMSO/Acetone & then mixed with water to calibrated spray volume of 50 ml. This 50 ml spray solution was poured into the spray bottles for further applications.
To test the preventive activity of compounds, healthy young wheat plants raised in the greenhouse were sprayed with active compound preparation at the stated application rates inside the spray cabinets using hallowcone nozzles. One day after treatment, the plants were inoculated with spore suspension (2% Malt) containing 2×10^6 Fusarium culmorum inoculum. The inoculated plants were then kept in greenhouse chamber at 24° C. temperature and 80-90% relative humidity for disease expression.
A visual assessment of compound's performance was carried by rating the disease severity (0-100% scale) on treated plants on 3, 7, 10 and 15 days after application. Efficacy (% control) of the compounds was calculated by comparing the disease rating in the treatment with untreated control. The sprayed plants were also assessed for compound's phytotoxic effects by recording symptoms like necrosis, chlorosis and stunting.

Septoria lycopersici = Septoria lycopersici (leaf spot of tomato) in vitro test, radial growth on Potato Dextrose Agar; assay type: cell-based; settings: 168 h, seven days, 25° C., read-out: % control compared to the untreated check (radial growth)
Colletotrichum capsici = Colletotrichum capsici (anthracnose) in vitro test, radial growth on Potato Dextrose Agar; assay type: cell-based; settings: Colletotrichum truncatum, 168 h; 300 ppm; seven days, 25° C.; read-out: % control compared to the untreated check (radial growth)
Botrytis cinerea = Botrytis cinerea (gray mold) in vitro test, radial growth on Potato Dextrose Agar; assay type: cell-based; settings: 168 h, 300 ppm, seven days, 22° C., read-out: % (control) compared to the untreated check (radial growth)
Pyricularia oryzae = test: microbe, parasite or virus in culture; assay type: cell-based; settings: 168 h, read-out: % control compared to the untreated check (radial growth)
Fusarium culmorum [2] = test: Fusarium culmorum (foot rot of cereals) in vitro test, radial growth on Potato Dextrose Agar; assay type: cell-based; settings: Fusarium culmorum, 168 h, read-out: % control compared to the untreated check (radial growth)
Rhizoctonia solani = Rhizoctonia solani (rice sheath blight/potato black scurf) in vitro test, radial growth on Potato Dextrose Agar; assay type: cell-based; settings: 168 h, 300 ppm, seven days, 25° C., read-out: % control compared to the untreated check (radial growth)
Alternaria solani = Alternaria solani (early blight of tomato/potato) in vitro test, radial growth on Potato Dextrose Agar; assay type: cell-based; settings: 168 h, 300 ppm, seven days, 25° C., read-out: % control compared to the untreated check (radial growth)

What does the source list for `CCN(C)C=Nc1cc(C)c(Cc2ccc(F)cc2)cc1C` [Compound 57, N-ethyl-N′-(4-(4-fluorobenzyl)-2,5-dimethylphenyl)-N-methylformimidamide]?
pest or weed control at 500 ppm (Fusarium culmorum [1]): 70 to 100%; inhibition of growth at 300 ppm (Septoria lycopersici): > 70%; inhibition of growth at 300 ppm (Colletotrichum capsici): > 80%; inhibition of growth at 300 ppm (Botrytis cinerea): > 80%; inhibition of growth at 300 ppm (Pyricularia oryzae): > 75%; inhibition of growth at 300 ppm (Fusarium culmorum [2]): 75%; inhibition of growth at 300 ppm (Rhizoctonia solani): > 80%; inhibition of growth at 300 ppm (Alternaria solani): > 75%

What does the source list for `Cc1cc(N=CN(C)C(C)C)c(C)cc1Cc1ccccc1F` [Compound 81, N′-(4-(2-fluorobenzyl)-2,5-dimethylphenyl)-N-isopropyl-N-methylformimidamide]?
pest or weed control at 500 ppm (Fusarium culmorum [1]): 70 to 100%; inhibition of growth at 300 ppm (Septoria lycopersici): > 70%; inhibition of growth at 300 ppm (Colletotrichum capsici): > 80%; inhibition of growth at 300 ppm (Botrytis cinerea): > 80%; inhibition of growth at 300 ppm (Pyricularia oryzae): > 75%; inhibition of growth at 300 ppm (Fusarium culmorum [2]): 75%; inhibition of growth at 300 ppm (Rhizoctonia solani): > 80%; inhibition of growth at 300 ppm (Alternaria solani): > 75%

Which pest or weed control at 500 ppm (Fusarium culmorum [1]) does the source give for `CCN(C)C=Nc1cc(C)c(Cc2ccc(Cl)c(C(F)(F)F)c2)cc1Cl` [Compound 136, N′-(2-chloro-4-(4-chloro-3-(trifluoromethyl)benzyl)-5-methylphenyl)-N-ethyl-N-methylformimidamide] here?
The pest or weed control at 500 ppm was 70 to 100%.

And the inhibition of growth at 300 ppm (Colletotrichum capsici)?
The inhibition of growth at 300 ppm was greater than 80%.

And the inhibition of growth at 300 ppm (Botrytis cinerea)?
Its inhibition of growth at 300 ppm is greater than 80%.

What about the inhibition of growth at 300 ppm (Pyricularia oryzae) of the same compound?
The inhibition of growth at 300 ppm was greater than 75%.

And the inhibition of growth at 300 ppm (Fusarium culmorum [2])?
The inhibition of growth at 300 ppm was 75%.

What about the inhibition of growth at 300 ppm (Rhizoctonia solani) of the same compound?
Its inhibition of growth at 300 ppm is greater than 80%.

And the inhibition of growth at 300 ppm (Alternaria solani)?
The inhibition of growth at 300 ppm was greater than 75%.

With `CCN(C)C=Nc1cc(C)c(Cc2cccc(F)c2)cc1Cl` [Compound 30, N′-(2-chloro-4-(3-fluorobenzyl)-5-methylphenyl)-N-ethyl-N-methylformimidamide] as the compound, how does the pest or weed control at 500 ppm (Fusarium culmorum [1]) read?
The pest or weed control at 500 ppm was 70 to 100%.

And the inhibition of growth at 300 ppm (Septoria lycopersici)?
The inhibition of growth at 300 ppm was greater than 70%.

What about the inhibition of growth at 300 ppm (Colletotrichum capsici) of the same compound?
The inhibition of growth at 300 ppm was greater than 80%.

What about the inhibition of growth at 300 ppm (Botrytis cinerea) of the same compound?
Its inhibition of growth at 300 ppm is greater than 80%.

What about the inhibition of growth at 300 ppm (Pyricularia oryzae) of the same compound?
The inhibition of growth at 300 ppm was greater than 75%.

And the inhibition of growth at 300 ppm (Fusarium culmorum [2])?
Its inhibition of growth at 300 ppm is 75%.

And the inhibition of growth at 300 ppm (Rhizoctonia solani)?
Its inhibition of growth at 300 ppm is greater than 80%.

What about the inhibition of growth at 300 ppm (Alternaria solani) of the same compound?
Its inhibition of growth at 300 ppm is greater than 75%.

`CCN(C)C=Nc1cc(C)c(Cc2cc(F)ccc2C)cc1C` [Compound 157, N-ethyl-N′-(4-(5-fluoro-2-methylbenzyl)-2,5-dimethylphenyl)-N-methylformimidamide] was tested. Which pest or weed control at 500 ppm (Fusarium culmorum [1]) did it give?
The pest or weed control at 500 ppm was 70 to 100%.

And the inhibition of growth at 300 ppm (Septoria lycopersici)?
The inhibition of growth at 300 ppm was greater than 70%.

And the inhibition of growth at 300 ppm (Colletotrichum capsici)?
Its inhibition of growth at 300 ppm is greater than 80%.

What about the inhibition of growth at 300 ppm (Botrytis cinerea) of the same compound?
Its inhibition of growth at 300 ppm is greater than 80%.

What about the inhibition of growth at 300 ppm (Pyricularia oryzae) of the same compound?
The inhibition of growth at 300 ppm was greater than 75%.

What about the inhibition of growth at 300 ppm (Fusarium culmorum [2]) of the same compound?
The inhibition of growth at 300 ppm was 75%.

What about the inhibition of growth at 300 ppm (Rhizoctonia solani) of the same compound?
The inhibition of growth at 300 ppm was greater than 80%.

And the inhibition of growth at 300 ppm (Alternaria solani)?
Its inhibition of growth at 300 ppm is greater than 75%.

Which pest or weed control at 500 ppm (Fusarium culmorum [1]) does the source give for `CCN(C)C=Nc1cc(F)c(Cc2cccc(F)c2)cc1C` [Compound 172, N-ethyl-N′-(5-fluoro-4-(3-fluorobenzyl)-2-methylphenyl)-N-methylformimidamide] here?
Its pest or weed control at 500 ppm is 70 to 100%.

And the inhibition of growth at 300 ppm (Septoria lycopersici)?
The inhibition of growth at 300 ppm was greater than 70%.

What about the inhibition of growth at 300 ppm (Colletotrichum capsici) of the same compound?
Its inhibition of growth at 300 ppm is greater than 80%.

What about the inhibition of growth at 300 ppm (Botrytis cinerea) of the same compound?
Its inhibition of growth at 300 ppm is greater than 80%.

And the inhibition of growth at 300 ppm (Pyricularia oryzae)?
Its inhibition of growth at 300 ppm is greater than 75%.

What about the inhibition of growth at 300 ppm (Fusarium culmorum [2]) of the same compound?
Its inhibition of growth at 300 ppm is 75%.

And the inhibition of growth at 300 ppm (Rhizoctonia solani)?
Its inhibition of growth at 300 ppm is greater than 80%.

What about the inhibition of growth at 300 ppm (Alternaria solani) of the same compound?
The inhibition of growth at 300 ppm was greater than 75%.

Which pest or weed control at 500 ppm (Fusarium culmorum [1]) does the source give for `CCN(C)C=Nc1cc(C)c(Cc2ccccc2[N+](=O)[O-])cc1Cl` [Compound 75, N′-(2-chloro-5-methyl-4-(2-nitrobenzyl)phenyl)-N-ethyl-N-methylformimidamide] here?
The pest or weed control at 500 ppm was 70 to 100%.

What about the inhibition of growth at 300 ppm (Colletotrichum capsici) of the same compound?
Its inhibition of growth at 300 ppm is greater than 80%.

What about the inhibition of growth at 300 ppm (Botrytis cinerea) of the same compound?
Its inhibition of growth at 300 ppm is greater than 80%.

And the inhibition of growth at 300 ppm (Pyricularia oryzae)?
The inhibition of growth at 300 ppm was greater than 75%.

And the inhibition of growth at 300 ppm (Fusarium culmorum [2])?
The inhibition of growth at 300 ppm was 75%.

And the inhibition of growth at 300 ppm (Rhizoctonia solani)?
The inhibition of growth at 300 ppm was greater than 80%.

What about the inhibition of growth at 300 ppm (Alternaria solani) of the same compound?
The inhibition of growth at 300 ppm was greater than 75%.

Which pest or weed control at 500 ppm (Fusarium culmorum [1]) does the source give for `CCN(C)C=Nc1cc(C)c(Cc2ccc(F)cc2)cc1Cl` [Compound 76, N′-(2-chloro-4-(4-fluorobenzyl)-5-methylphenyl)-N-ethyl-N-methylformimidamide] here?
The pest or weed control at 500 ppm was 70 to 100%.

And the inhibition of growth at 300 ppm (Colletotrichum capsici)?
Its inhibition of growth at 300 ppm is greater than 80%.

And the inhibition of growth at 300 ppm (Botrytis cinerea)?
The inhibition of growth at 300 ppm was greater than 80%.

What about the inhibition of growth at 300 ppm (Pyricularia oryzae) of the same compound?
The inhibition of growth at 300 ppm was greater than 75%.

And the inhibition of growth at 300 ppm (Fusarium culmorum [2])?
The inhibition of growth at 300 ppm was 75%.

And the inhibition of growth at 300 ppm (Rhizoctonia solani)?
The inhibition of growth at 300 ppm was greater than 80%.

And the inhibition of growth at 300 ppm (Alternaria solani)?
Its inhibition of growth at 300 ppm is greater than 75%.
